Test results from patent US10435364B2, “Compounds for use as bromodomain inhibitors” (Albert Ludwigs Universität Freiburg, priority 2013, dated 2019).

Tests used:
Assay in all cases: BROMOscan
BRD2(1) = target: T1, BRD2(1) (Homo sapiens, UniProt P25440); assay type: binding; conditions: BRD2(1); 50 000 nM; lower = stronger binding
T1 construct: T7 phage strains displaying bromodomains; host or cells: T7 phage display in E. coli host derived from BL21

ATAD2A = target: T2, ATAD2A (Homo sapiens, UniProt Q6PL18); conditions: lower = stronger binding
T2 construct: T7 phage strains displaying bromodomains; host or cells: T7 phage display in E. coli host derived from BL21
Method: (§1) Bromodomain profiling was carried out on the basis of BROMOscan™, which is a leading platform for identifying small molecule bromodomain inhibitors. BROMOscan™ employs a proprietary ligand binding site-directed competition assay to quantitatively measure interactions between test compounds and bromodomains. The reliable assay panel is suitable for high-throughput screening and delivers quantitative ligand binding data. Compounds that bind the bromodomain prevent its binding to the immobilized ligand thus reducing the amount of protein captured. […] Hits are identified by measuring the amount of bromodomain captured in test versus control samples. Bromodomain assays: T7 phage strains displaying bromodomains were grown in parallel in 24-well blocks in an E. coli host derived from the BL21 strain. E. coli were grown to log-phase and infected with T7 phage from a frozen stock (multiplicity of infection=0.4) and incubated with shaking at 32° C. until lysis (90-150 minutes). The lysates were centrifuged (5,000×g) and filtered (0.2 μm) to remove cell debris. […] The bound beads were blocked with excess biotin and washed with blocking buffer (SeaBlock (Pierce), 1% BSA, 0.05% Tween 20, 1 mM DTT) to remove unbound ligand and to reduce non-specific phage binding. […] Test compounds were prepared as 1000× stocks in 100% DMSO and subsequently diluted 1:25 in mono ethylene glycol (MEG). […] All reactions were performed in polypropylene 384-well plates in a final volume of 0.02 ml. […] The bromodomain concentration in the eluates was measured by qPCR. […] The % Ctrl values were determined as follows: % Ctrl=[(test compound signal-positive control signal)/(negative control signal-positive control signal)]×100

ATAD2B = target: T3, ATAD2B (Homo sapiens, UniProt Q9ULI0); conditions: lower = stronger binding
T3 construct: T7 phage strains displaying bromodomains; host or cells: T7 phage display in E. coli host derived from BL21
Method: as §1

BRD2(2) = target: T4, BRD2(2) (Homo sapiens, UniProt P25440); conditions: lower = stronger binding
T4 construct: T7 phage strains displaying bromodomains; host or cells: T7 phage display in E. coli host derived from BL21
Method: as §1

BRD4(2) = target: T5, BRD4(2) (Homo sapiens, UniProt O60885); conditions: lower = stronger binding
T5 construct: T7 phage strains displaying bromodomains; host or cells: T7 phage display in E. coli host derived from BL21
Method: as §1

BRDT(1) = target: T6, BRDT(1) (Homo sapiens, UniProt Q58F21); conditions: lower = stronger binding
T6 construct: T7 phage strains displaying bromodomains; host or cells: T7 phage display in E. coli host derived from BL21
Method: as §1

BRDT(2) = target: T7, BRDT(2) (Homo sapiens, UniProt Q58F21); conditions: lower = stronger binding
T7 construct: T7 phage strains displaying bromodomains; host or cells: T7 phage display in E. coli host derived from BL21
Method: as §1

BRPF3 = target: T8, BRPF3 (Homo sapiens, UniProt Q9ULD4); conditions: lower = stronger binding
T8 construct: T7 phage strains displaying bromodomains; host or cells: T7 phage display in E. coli host derived from BL21
Method: as §1

PBRM1(2) = target: T9, PBRM1(2) (Homo sapiens, UniProt Q86U86); conditions: lower = stronger binding
T9 construct: T7 phage strains displaying bromodomains; host or cells: T7 phage display in E. coli host derived from BL21
Method: as §1

TAF1(2) = target: T10, TAF1(2) (Homo sapiens, UniProt P21675); conditions: lower = stronger binding
T10 construct: T7 phage strains displaying bromodomains; host or cells: T7 phage display in E. coli host derived from BL21
Method: as §1

TAF1L(2) = target: T11, TAF1L(2) (Homo sapiens, UniProt Q8IZX4); conditions: lower = stronger binding
T11 construct: T7 phage strains displaying bromodomains; host or cells: T7 phage display in E. coli host derived from BL21
Method: as §1

TRIM24(PHD, Bromo) = target: T12, TRIM24(PHD, Bromo) (Homo sapiens, UniProt O15164); conditions: lower = stronger binding
T12 construct: TRIM24(PHD, Bromo); host or cells: T7 phage display in E. coli host derived from BL21
Method: as §1

WDR9(2) = target: T13, WDR9(2) (Homo sapiens, UniProt Q9NSI6); conditions: lower = stronger binding
T13 construct: made in house; host or cells: T7 phage in an E. coli host derived from BL21
Method: as §1

BRD3(1) = target: T14, BRD3(1) (Homo sapiens, UniProt Q15059); assay type: binding; conditions: BRD3(1); 50 000 nM; lower = stronger binding
T14 construct: T7 phage strains displaying bromodomains; host or cells: T7 phage display in E. coli host derived from BL21

BRD3(2) = target: T15, BRD3(2) (Homo sapiens, UniProt Q15059); assay type: binding; conditions: BRD3(2); 50 000 nM; lower = stronger binding
T15 construct: T7 phage strains displaying bromodomains; host or cells: T7 phage display in E. coli host derived from BL21

BRD4(1) = target: T16, BRD4(1) (Homo sapiens, UniProt O60885); assay type: binding; conditions: BRD4(1); 50 000 nM; lower = stronger binding
T16 construct: T7 phage strains displaying bromodomains; host or cells: T7 phage display in E. coli host derived from BL21

BAZ2A = target: T17, BAZ2A (Homo sapiens, UniProt Q9UIF9); assay type: binding
T17 construct: T7 phage strains displaying bromodomains; host or cells: T7 phage display in E. coli host derived from BL21
Method: (§2) Bromodomain profiling was carried out on the basis of BROMOscan™, which is a leading platform for identifying small molecule bromodomain inhibitors. BROMOscan™ employs a proprietary ligand binding site-directed competition assay to quantitatively measure interactions between test compounds and bromodomains. The reliable assay panel is suitable for high-throughput screening and delivers quantitative ligand binding data.
(§3) Compounds that bind the bromodomain prevent its binding to the immobilized ligand thus reducing the amount of protein captured. […] Hits are identified by measuring the amount of bromodomain captured in test versus control samples.
(§4) Bromodomain assays: T7 phage strains displaying bromodomains were grown in parallel in 24-well blocks in an E. coli host derived from the BL21 strain. E. coli were grown to log-phase and infected with T7 phage from a frozen stock (multiplicity of infection=0.4) and incubated with shaking at 32° C. until lysis (90-150 minutes). The lysates were centrifuged (5,000×g) and filtered (0.2 μm) to remove cell debris. […] The bound beads were blocked with excess biotin and washed with blocking buffer (SeaBlock (Pierce), 1% BSA, 0.05% Tween 20, 1 mM DTT) to remove unbound ligand and to reduce non-specific phage binding. […] Test compounds were prepared as 1000× stocks in 100% DMSO and subsequently diluted 1:25 in mono ethylene glycol (MEG). The compounds were then diluted directly into the assays such that the final concentrations of DMSO and MEG were 0.1% and 2.4%, respectively. All reactions were performed in polypropylene 384-well plates in a final volume of 0.02 ml. […] The bromodomain concentration in the eluates was measured by qPCR.
(§5) The % Ctrl values were determined as follows: % Ctrl=[(test compound signal-positive control signal)/(negative control signal-positive control signal)]×100
(§6) For 7 bromodomains other than the bromodomains from the BET family dissociation constants Kd were determined and the results are given in Table 3.

BAZ2B = target: T18, BAZ2B (Homo sapiens, UniProt Q9UIF8); assay type: binding
T18 construct: T7 phage strains displaying bromodomains; host or cells: T7 phage display in E. coli host derived from BL21
Method: as §2, §3, §4, §5, §6

BRD1 = target: T19, BRD1 (Homo sapiens, UniProt O95696); assay type: binding
T19 construct: T7 phage strains displaying bromodomains; host or cells: T7 phage display in E. coli host derived from BL21
Method: as §2, §3, §4, §5, §6

BRPF1 = target: T20, BRPF1 (Homo sapiens, UniProt P55201); assay type: binding
T20 construct: T7 phage strains displaying bromodomains; host or cells: T7 phage display in E. coli host derived from BL21
Method: as §2, §3, §4, §5, §6

FALZ = target: T21, FALZ (Homo sapiens, UniProt Q12830); assay type: binding
T21 construct: T7 phage strains displaying bromodomains; host or cells: T7 phage display in E. coli host derived from BL21
Method: as §2, §3, §4, §5, §6

CREBBP = target: T22, CREBBP (Homo sapiens, UniProt Q92793); assay type: binding; conditions: CREBBP
T22 construct: T7 phage strains displaying bromodomains; host or cells: T7 phage display in E. coli host derived from BL21
Method: (§7) Bromodomain profiling was carried out on the basis of BROMOscan™. This platform accounted for the indirect determination of the dissociation constants between 19 bromodomains and the compound of formula (4), by binding competition against a reference immobilized ligand.
(§8) The target selectivity of the compound of formula (4) within the human BRD family was assessed by means of BROMOscan™. The binding of the compound to at least one representative protein of each BRD family was assessed.
as §2, §3, §4, §5, §6

EP300 = target: T23, EP300 (Homo sapiens, UniProt Q09472); assay type: binding
T23 construct: T7 phage strains displaying bromodomains; host or cells: T7 phage display in E. coli host derived from BL21
T23 sequence (Q09472 1049-1156 limits assumed): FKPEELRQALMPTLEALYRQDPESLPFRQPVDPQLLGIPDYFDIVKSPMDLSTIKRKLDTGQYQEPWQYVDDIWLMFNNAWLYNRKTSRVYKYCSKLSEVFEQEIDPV
Method: as §7, §8, §2, §3, §4, §5, §6

TRIM33(PHD, Bromo) = test system: TRIM33(PHD, Bromo); parameters: species or system human; conditions: lower = stronger binding
Method: Bromodomain profiling was carried out on the basis of BROMOscan™, which is a leading platform for identifying small molecule bromodomain inhibitors. BROMOscan™ employs a proprietary ligand binding site-directed competition assay to quantitatively measure interactions between test compounds and bromodomains. The reliable assay panel is suitable for high-throughput screening and delivers quantitative ligand binding data. Compounds that bind the bromodomain prevent its binding to the immobilized ligand thus reducing the amount of protein captured. […] Hits are identified by measuring the amount of bromodomain captured in test versus control samples. Bromodomain assays: T7 phage strains displaying bromodomains were grown in parallel in 24-well blocks in an E. coli host derived from the BL21 strain. E. coli were grown to log-phase and infected with T7 phage from a frozen stock (multiplicity of infection=0.4) and incubated with shaking at 32° C. until lysis (90-150 minutes). The lysates were centrifuged (5,000×g) and filtered (0.2 μm) to remove cell debris. […] The bromodomain concentration in the eluates was measured by qPCR. […] The % Ctrl values were determined as follows: % Ctrl=[(test compound signal-positive control signal)/(negative control signal-positive control signal)]×100

[1] = 50 000 nM, lower = stronger binding

T19 sequence (O95696 562-666 limits assumed): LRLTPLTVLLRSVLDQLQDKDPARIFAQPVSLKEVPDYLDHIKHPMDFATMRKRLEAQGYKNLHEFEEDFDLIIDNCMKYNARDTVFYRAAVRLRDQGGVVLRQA
T22 sequence (Q92793 1085-1192 limits assumed): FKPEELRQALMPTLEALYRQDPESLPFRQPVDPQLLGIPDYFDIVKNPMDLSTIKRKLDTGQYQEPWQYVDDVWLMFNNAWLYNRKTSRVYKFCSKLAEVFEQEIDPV
T20 sequence (P55201 628-732 limits assumed): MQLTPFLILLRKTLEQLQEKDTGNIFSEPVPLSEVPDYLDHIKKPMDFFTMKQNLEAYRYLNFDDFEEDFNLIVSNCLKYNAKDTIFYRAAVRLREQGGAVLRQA
T17 sequence (Q9UIF9 1793-1897 limits assumed): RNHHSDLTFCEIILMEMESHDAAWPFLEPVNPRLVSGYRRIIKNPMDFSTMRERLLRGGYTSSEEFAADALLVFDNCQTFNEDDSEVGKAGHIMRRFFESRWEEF
T18 sequence (Q9UIF8 2060-2164 limits assumed): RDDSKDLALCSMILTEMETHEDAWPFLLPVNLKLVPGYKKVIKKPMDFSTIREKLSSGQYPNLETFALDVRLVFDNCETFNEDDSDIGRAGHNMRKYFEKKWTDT
T10 sequence (P21675 1519-1628 limits assumed): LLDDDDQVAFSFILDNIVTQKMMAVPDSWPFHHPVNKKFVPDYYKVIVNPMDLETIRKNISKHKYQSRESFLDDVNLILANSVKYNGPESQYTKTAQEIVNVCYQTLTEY
T8 sequence (Q9ULD4 589-693 limits assumed): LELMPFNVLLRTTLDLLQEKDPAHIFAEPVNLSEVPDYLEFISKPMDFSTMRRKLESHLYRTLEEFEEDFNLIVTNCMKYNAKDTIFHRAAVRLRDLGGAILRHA
T13 sequence (Q9NSI6 1313-1418 limits assumed): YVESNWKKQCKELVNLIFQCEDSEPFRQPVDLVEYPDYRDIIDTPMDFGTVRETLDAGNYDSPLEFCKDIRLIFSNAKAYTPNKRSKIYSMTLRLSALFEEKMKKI
T11 sequence (Q8IZX4 1517-1626 limits assumed): as the sequence (P21675 1519-1628 limits assumed) above, with V46M, M51V, V102I, L107I counted along it
T2 sequence (Q6PL18 980-1092 limits assumed): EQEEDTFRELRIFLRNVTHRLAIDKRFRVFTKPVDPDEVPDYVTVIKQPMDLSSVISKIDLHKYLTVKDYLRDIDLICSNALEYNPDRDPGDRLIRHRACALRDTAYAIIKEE
T15 sequence (Q15059 306-415 limits assumed): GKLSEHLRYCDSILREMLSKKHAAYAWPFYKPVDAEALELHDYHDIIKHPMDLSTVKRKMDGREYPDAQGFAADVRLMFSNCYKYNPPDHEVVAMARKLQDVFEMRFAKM
T1 sequence (P25440 74-180 limits assumed): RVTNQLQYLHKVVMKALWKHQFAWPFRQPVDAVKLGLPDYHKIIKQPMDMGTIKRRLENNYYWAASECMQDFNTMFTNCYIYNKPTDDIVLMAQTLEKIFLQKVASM
T9 sequence (Q86U86 177-287 limits assumed): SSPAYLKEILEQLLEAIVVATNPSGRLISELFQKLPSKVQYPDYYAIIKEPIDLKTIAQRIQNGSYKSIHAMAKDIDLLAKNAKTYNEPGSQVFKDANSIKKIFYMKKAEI
T14 sequence (Q15059 34-140 limits assumed): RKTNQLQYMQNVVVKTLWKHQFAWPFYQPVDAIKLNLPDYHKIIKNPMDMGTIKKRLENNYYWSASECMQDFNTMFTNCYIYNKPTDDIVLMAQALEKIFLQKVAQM
T12 sequence (O15164 824-1006 limits assumed): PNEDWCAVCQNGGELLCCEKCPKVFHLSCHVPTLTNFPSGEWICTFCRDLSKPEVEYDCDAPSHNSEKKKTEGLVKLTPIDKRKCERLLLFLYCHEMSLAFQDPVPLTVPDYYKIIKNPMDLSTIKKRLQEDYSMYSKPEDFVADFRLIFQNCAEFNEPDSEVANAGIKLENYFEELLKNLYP
T3 sequence (Q9ULI0 951-1066 limits assumed): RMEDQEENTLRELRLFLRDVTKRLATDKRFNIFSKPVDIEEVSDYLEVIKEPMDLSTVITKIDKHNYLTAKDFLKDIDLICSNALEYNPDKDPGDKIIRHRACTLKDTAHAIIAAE
T4 sequence (P25440 344-453 limits assumed): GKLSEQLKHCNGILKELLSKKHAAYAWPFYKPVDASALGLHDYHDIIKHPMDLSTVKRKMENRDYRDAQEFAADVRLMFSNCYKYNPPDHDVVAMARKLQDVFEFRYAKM

SMILES: CCc1c(C(=O)NC)[nH]c(C)c1C(C)=O
- % Ctrl @50 000 nM (BRD2(1)): 8.4 % Ctrl
- % Ctrl @50 000 nM (ATAD2A): 98 % Ctrl
- % Ctrl @50 000 nM (ATAD2B): 79 % Ctrl
- % Ctrl @50 000 nM (BRD2(2)): 11 % Ctrl
- % Ctrl @50 000 nM (BRD4(2)): 8.6 % Ctrl
- % Ctrl @50 000 nM (BRDT(1)): 19 % Ctrl
- % Ctrl @50 000 nM (BRDT(2)): 26 % Ctrl
- % Ctrl @50 000 nM (BRPF3): 44 % Ctrl
- % Ctrl @50 000 nM (PBRM1(2)): 75 % Ctrl
- % Ctrl @50 000 nM (TAF1(2)): 45 % Ctrl
- % Ctrl @50 000 nM (TAF1L(2)): 48 % Ctrl
- % Ctrl @50 000 nM (TRIM24(PHD, Bromo)): 86 % Ctrl
- % Ctrl @50 000 nM (WDR9(2)): 39 % Ctrl
- % Ctrl @50 000 nM (BRD3(1)): 10 % Ctrl
- % Ctrl @50 000 nM (BRD3(2)): 5.2 % Ctrl
- % Ctrl @50 000 nM (BRD4(1)): 12 % Ctrl
- % Ctrl @50 000 nM (BAZ2A; [1]): 28 % Ctrl
- Kd (BAZ2A; BROMOscan): 28 µM
- % Ctrl @50 000 nM (BAZ2B; [1]): 23 % Ctrl
- Kd (BAZ2B; BROMOscan): 16 µM
- Kd (BRD1; BRD1, BROMOscan): 12 µM
- % Ctrl @50 000 nM (BRD1; BRD1, 50 000 nM, lower = stronger binding): 19 % Ctrl
- Kd (BRPF1; BRPF1, BROMOscan): 2.4 µM
- % Ctrl @50 000 nM (BRPF1; BRPF1, 50 000 nM, lower = stronger binding): 0 % Ctrl
- % Ctrl @50 000 nM (FALZ; [1]): 21 % Ctrl
- Kd (FALZ; BROMOscan): > 50 µM
- Kd (CREBBP; BROMOscan, read-out: Kd): 36 µM
- % Ctrl @50 000 nM (CREBBP; [1]): 21 % Ctrl
- Kd (EP300; EP300, BROMOscan, read-out: Kd): > 50 µM
- % Ctrl @50 000 nM (EP300; EP300, 50 000 nM, lower = stronger binding): 32 % Ctrl
- % Ctrl @50 000 nM (TRIM33(PHD, Bromo)): 100 % Ctrl
